Test results reported in PubChem BioAssay AID1259407 (Chemical Carcinogenesis Research Information System (CCRIS), 2018).
Active and inactive are the calls of the source. No rule for the calls is given here.

Tested on: CCRIS mutagenicity, Ames/micronucleus/aberration tests
Experiment: CCRIS mutagenicity studies
[1] = Test System: AMES SALMONELLA TYPHIMURIUM, Strain/Indicator: TA98, Metabolic Activation: NONE, Method: STANDARD PLATE
[2] = Test System: AMES SALMONELLA TYPHIMURIUM, Strain/Indicator: TA98, Metabolic Activation: RAT, LIVER, S-9, AROCLOR 1254, Method: STANDARD PLATE
[3] = Test System: AMES SALMONELLA TYPHIMURIUM, Strain/Indicator: TA100, Metabolic Activation: NONE, Method: STANDARD PLATE
[4] = Test System: AMES SALMONELLA TYPHIMURIUM, Strain/Indicator: TA100, Metabolic Activation: RAT, LIVER, S-9, AROCLOR 1254, Method: STANDARD PLATE

Measured: mutagenic call

COC(=O)c1ccc(C(=O)OC)cc1
inactive: End Point: IN VITRO CHROMOSOMAL ABERRATIONS, Test System: CHO-LB CELLS, Metabolic Activation: NONE inactive; negative | End Point: IN VITRO CHROMOSOMAL ABERRATIONS, Test System: CHO-LB CELLS, Metabolic Activation: RAT, LIVER, S-9, AROCLOR 1254 inactive; negative | Test System: AMES SALMONELLA TYPHIMURIUM, Strain/Indicator: TA98, Metabolic Activation: HAMSTER, LIVER, S-9, AROCLOR 1254 (10%), Method: PREINCUBATION inactive; negative | Test System: AMES SALMONELLA TYPHIMURIUM, Strain/Indicator: TA98, Metabolic Activation: NONE, Method: PREINCUBATION inactive; negative | [1] inactive; negative | Test System: AMES SALMONELLA TYPHIMURIUM, Strain/Indicator: TA98, Metabolic Activation: RAT LIVER S-9, AROCLOR 1254, Method: STANDARD PLATE inactive; negative | Test System: AMES SALMONELLA TYPHIMURIUM, Strain/Indicator: TA98, Metabolic Activation: RAT LIVER S-9, PHENOBARBITAL AND BETA-NAPHTHOFLAVONE, Method: PREINCUBATION inactive; negative | Test System: AMES SALMONELLA TYPHIMURIUM, Strain/Indicator: TA98, Metabolic Activation: RAT, LIVER, S-9, AROCLOR 1254 (10%), Method: PREINCUBATION inactive; negative | [2] inactive; negative | Test System: AMES SALMONELLA TYPHIMURIUM, Strain/Indicator: TA98, Metabolic Activation: S-9, Method: STANDARD PLATE inactive; negative | Test System: AMES SALMONELLA TYPHIMURIUM, Strain/Indicator: TA100, Metabolic Activation: HAMSTER, LIVER, S-9, AROCLOR 1254 (10%), Method: PREINCUBATION inactive; negative | Test System: AMES SALMONELLA TYPHIMURIUM, Strain/Indicator: TA100, Metabolic Activation: NONE, Method: PREINCUBATION inactive; negative | [3] inactive; negative | Test System: AMES SALMONELLA TYPHIMURIUM, Strain/Indicator: TA100, Metabolic Activation: RAT LIVER S-9, AROCLOR 1254, Method: STANDARD PLATE inactive; negative | Test System: AMES SALMONELLA TYPHIMURIUM, Strain/Indicator: TA100, Metabolic Activation: RAT LIVER S-9, PHENOBARBITAL AND BETA-NAPHTHOFLAVONE, Method: PREINCUBATION inactive; negative | Test System: AMES SALMONELLA TYPHIMURIUM, Strain/Indicator: TA100, Metabolic Activation: RAT, LIVER, S-9, AROCLOR 1254 (10%), Method: PREINCUBATION inactive; negative | [4] inactive; negative | Test System: AMES SALMONELLA TYPHIMURIUM, Strain/Indicator: TA100, Metabolic Activation: S-9, Method: STANDARD PLATE inactive; negative | Test System: AMES SALMONELLA TYPHIMURIUM, Strain/Indicator: TA102, Metabolic Activation: NONE, Method: STANDARD PLATE inactive; negative | Test System: AMES SALMONELLA TYPHIMURIUM, Strain/Indicator: TA102, Metabolic Activation: S-9, Method: STANDARD PLATE inactive; negative | Test System: AMES SALMONELLA TYPHIMURIUM, Strain/Indicator: TA1535, Metabolic Activation: HAMSTER, LIVER, S-9, AROCLOR 1254 (10%), Method: PREINCUBATION inactive; negative | Test System: AMES SALMONELLA TYPHIMURIUM, Strain/Indicator: TA1535, Metabolic Activation: NONE, Method: PREINCUBATION inactive; negative | Test System: AMES SALMONELLA TYPHIMURIUM, Strain/Indicator: TA1535, Metabolic Activation: NONE, Method: STANDARD PLATE inactive; negative | Test System: AMES SALMONELLA TYPHIMURIUM, Strain/Indicator: TA1535, Metabolic Activation: RAT LIVER S-9, AROCLOR 1254, Method: STANDARD PLATE inactive; negative | Test System: AMES SALMONELLA TYPHIMURIUM, Strain/Indicator: TA1535, Metabolic Activation: RAT LIVER S-9, PHENOBARBITAL AND BETA-NAPHTHOFLAVONE, Method: PREINCUBATION inactive; negative | Test System: AMES SALMONELLA TYPHIMURIUM, Strain/Indicator: TA1535, Metabolic Activation: RAT, LIVER, S-9, AROCLOR 1254 (10%), Method: PREINCUBATION inactive; negative | Test System: AMES SALMONELLA TYPHIMURIUM, Strain/Indicator: TA1535, Metabolic Activation: RAT, LIVER, S-9, AROCLOR 1254, Method: STANDARD PLATE inactive; negative | Test System: AMES SALMONELLA TYPHIMURIUM, Strain/Indicator: TA1535, Metabolic Activation: S-9, Method: STANDARD PLATE inactive; negative | Test System: AMES SALMONELLA TYPHIMURIUM, Strain/Indicator: TA1537, Metabolic Activation: HAMSTER, LIVER, S-9, AROCLOR 1254 (10%), Method: PREINCUBATION inactive; negative | Test System: AMES SALMONELLA TYPHIMURIUM, Strain/Indicator: TA1537, Metabolic Activation: NONE, Method: PREINCUBATION inactive; negative | Test System: AMES SALMONELLA TYPHIMURIUM, Strain/Indicator: TA1537, Metabolic Activation: NONE, Method: STANDARD PLATE inactive; negative | Test System: AMES SALMONELLA TYPHIMURIUM, Strain/Indicator: TA1537, Metabolic Activation: RAT LIVER S-9, AROCLOR 1254, Method: STANDARD PLATE inactive; negative | Test System: AMES SALMONELLA TYPHIMURIUM, Strain/Indicator: TA1537, Metabolic Activation: RAT LIVER S-9, PHENOBARBITAL AND BETA-NAPHTHOFLAVONE, Method: PREINCUBATION inactive; negative | Test System: AMES SALMONELLA TYPHIMURIUM, Strain/Indicator: TA1537, Metabolic Activation: RAT, LIVER, S-9, AROCLOR 1254 (10%), Method: PREINCUBATION inactive; negative | Test System: AMES SALMONELLA TYPHIMURIUM, Strain/Indicator: TA1537, Metabolic Activation: RAT, LIVER, S-9, AROCLOR 1254, Method: STANDARD PLATE inactive; negative | Test System: AMES SALMONELLA TYPHIMURIUM, Strain/Indicator: TA1537, Metabolic Activation: S-9, Method: STANDARD PLATE inactive; negative | Test System: AMES SALMONELLA TYPHIMURIUM, Strain/Indicator: TA1538, Metabolic Activation: NONE, Method: PREINCUBATION inactive; negative | Test System: AMES SALMONELLA TYPHIMURIUM, Strain/Indicator: TA1538, Metabolic Activation: NONE, Method: STANDARD PLATE inactive; negative | Test System: AMES SALMONELLA TYPHIMURIUM, Strain/Indicator: TA1538, Metabolic Activation: RAT LIVER S-9, AROCLOR 1254, Method: STANDARD PLATE inactive; negative | Test System: AMES SALMONELLA TYPHIMURIUM, Strain/Indicator: TA1538, Metabolic Activation: RAT LIVER S-9, PHENOBARBITAL AND BETA-NAPHTHOFLAVONE, Method: PREINCUBATION inactive; negative | Test System: AMES SALMONELLA TYPHIMURIUM, Strain/Indicator: TA1538, Metabolic Activation: RAT, LIVER, S-9, AROCLOR 1254, Method: STANDARD PLATE inactive; negative | Test System: AMES SALMONELLA TYPHIMURIUM, Strain/Indicator: TA1538, Metabolic Activation: S-9, Method: STANDARD PLATE inactive; negative | Test System: E.COLI, Strain/Indicator: WP2UVRA, Metabolic Activation: NONE, Method: PREINCUBATION inactive; negative | Test System: E.COLI, Strain/Indicator: WP2UVRA, Metabolic Activation: RAT LIVER S-9, PHENOBARBITAL AND BETA-NAPHTHOFLAVONE, Method: PREINCUBATION inactive; negative | Test System: UDS HUMAN HELA CELLS, Strain/Indicator: THYMIDINE INCORPORATION, Metabolic Activation: NONE, Method: LIQUID SCINTILLATION COUNTING inactive; negative

O=[N+]([O-])c1cc2c3c(ccc4cc([N+](=O)[O-])cc(c43)CC2)c1
active: Test System: AMES SALMONELLA TYPHIMURIUM, Strain/Indicator: TA98(1,8-DNP6), Metabolic Activation: NONE, Method: STANDARD PLATE active; positive | Test System: AMES SALMONELLA TYPHIMURIUM, Strain/Indicator: TA98(NR), Metabolic Activation: NONE, Method: STANDARD PLATE active; positive | [1] active; positive

CC1=C(/C=C/C(C)=C/C=C/C(C)=C/C=C/C=C(C)/C=C/C=C(\C)C=O)C(C)(C)CCC1
inactive: [1] inactive; negative | [2] inactive; negative | [3] inactive; negative | [4] inactive; negative
active: End Point: In vitro chromosomal aberrations, Test System: Primary rat (Fischer, female) hepatocytes, Metabolic Activation: None active; positive | End Point: In vitro micronucleus, Test System: Primary rat (Fischer, female) hepatocytes, Metabolic Activation: None active; positive
